Measurements from EP1169483B1, “VARIATION IN DRUG RESPONSE RELATED TO POLYMORPHISMS IN BETA2- ADRENERGIC RECEPTOR” (UNIVERSITY OF CINCINNATI, priority 1999, dated 2001).

Columns and labels:
Ile164 receptor [1] = settings: cited from earlier work; for binding affinity: competition with [125I]cyp in the presence of GTP, Ile164 receptor
human Ile164 receptor = settings: transgenic mice overexpressing human Ile164 receptor in the heart compared to wild-type receptor; cited from earlier work
Ile164 receptor [2] = settings: Ile164 receptor compared to Thr164 receptor; cited from earlier work
Thr164 receptor = settings: COS-7 cells transiently transfected; salmeterol 10 minutes at 37 °C, perfused with saline 30 min; n = 5, p = 0.02
Experimental: The exosite binding studies were carried out by methods as described in reference 4. Briefly, COS-7 cells were transiently transfected with constructs consisting of Thr164 or Ile164 cDNAs in the vector pBC12BI as previously described (4). Cells were grown in 35 mm dishes as monolayers. […] The media was removed, and cells perfused with saline at a rate of 20 ml/min for 30 min. Cells were detached by scraping and cell membranes prepared. […] Reactions were run for 2 hrs at 25 °C. Bound radioligand was separated from unbound by vacuum filtration over Whatman GF/C filters, which were counted in a gamma counter at 70% efficiency. Specific binding was defined as total minus non-specific binding, corrected for protein.

CC(C)NCC(O)c1ccc(O)c(O)c1 (stereo not shown) [isoproterenol]
binding affinity (Ile164 receptor [1]): small decrease in binding affinity | binding curves (Ile164 receptor [1]; in the absence of GTP, Ile164 compared to Thr164 receptor (Figure 2)): different between the two receptors | adenylyl cyclase activity in response to agonist (human Ile164 receptor): lowered activities

NC[C@H](O)c1ccc(O)c(O)c1 [norepinephrine]
binding affinity (Ile164 receptor [1]): small decrease in binding affinity

CNC[C@H](O)c1ccc(O)c(O)c1 [epinephrine]
binding affinity (Ile164 receptor [1]): small decrease in binding affinity | stimulation of adenylyl cyclase (Ile164 receptor [2]): decreased stimulation

OCc1cc(C(O)CNCCCCCCOCCCCc2ccccc2)ccc1O (stereo not shown) [salmeterol]
salmeterol exosite binding (Thr164 receptor): 49 ± 4%
